Laboratory results reported in patent US5753516A, “Screening method for ligands of the EBI-1 receptor” (priority 1995, dated 1998).
pKd: −log10 of the molar value. Where “and” joins values, the source holds several entries; their conditions need not be identical. Equal values may be shown once. Read-outs that look alike come from different tables or passages of the source.

Tests used:
NALM 6 cells [1] = experiment: cAMP accumulation in NALM 6 cells; assay type: cell-based, human; settings: forskolin-activated NALM 6
Experimental: FIG. 16. […] NALM 6 cells (2×10^6 /ml) were stimulated with forskolin or forskolin+MET-ENK at the concentrations indicated and in the presence of 1 mM isobutyl-1-methylxanthine. Cyclic AMP was assayed after 15 minutes at 37° C. Data are expressed as fmoles of cAMP/minute. Samples were processed as previously described Cobb, Heagy, Dunner et al., 1980; cAMP was measured using a commercial RIA kit.

murine splenocytes = settings: cited from earlier work
Jurkat cells [2] = experiment: MET-ENK-FITC binding to Jurkat cells (flow cytometry, Scatchard); design: species or system human
Jurkat cells [3] = experiment: [Ca^2+ ]i response of Jurkat cells (Indo-1, flow cytometry); assay type: cell-based, human
Experimental: FIG. 14, Panel A and B. Methionine enkephalin and opiate receptor agonists selective for […] stimulate transmembrane signaling in Jurkat cells. Cells were labeled with Indo-1, washed twice in serum-free medium and held at 4° C. until analyzed. Indo-1 fluorescence was measured using flow cytometry as previously described (Heagy et al., 1992; Ledbetter et al., 1987; Chang et al., 1989; Rabinovitch et al., 1986). The fluorescence for nonstimulated cells (measured in medium, alone) was arbitrarily set at 1.0. Data are presented as per cent increase in the response [(r-baseline) x 100%]. Baseline [Ca^2+ ]i value measured for Jurkat cells (n=4) was 80±40 nM. Baseline Panel A, Jurkat cell response to MET-ENK (0.1 nM, 10 nM and 1 μM) and to the d- selective agonist Dermenkephalin (10 nM). Panel B, Jurkat cell response to the d- selective agonist (D-Pen ^2,5, p Cl-Phe^4)-ENK (0.1 nM. 10 nM. 1 μM).
The inventors (Heagy et al., 1992) have previously shown that when applied to NALM 6 cells the κ-1 agonist U69,953 stimulates a rapid increase in [Ca^2+ ]i. […] In order to determine whether the sites the inventors have identified using the δ-selective agonists also elicit Ca^2+ responses the inventors measured the effects of opioid peptides and δ-selective agonists on the calcium response. […] These studies provide evidence that Jurkat cells have functional δ opiate receptor sites which stimulate transmembrane signaling via rapid increases in [Ca^2+ ]i.

NK cells and lymphocytes = settings: literature; cited from earlier work
NALM 6 cells [4] = experiment: Migration (chemotaxis) of NALM 6 pre-B ALL cells; assay type: cell-based, human; settings: for Number of cells at 40 μm from origin: cells preincubated with mAb (MET-ENK line: buffer, alone); for cell counts, migration to MET-ENK without naloxone: spontaneous 1647
NALM 6 cells [5] = experiment: MET-ENK-FITC binding to NALM 6 cells (flow cytometry, Scatchard); design: species or system human; settings: NALM 6
EBI1 = biological target: T1, EBI1 (Homo sapiens, UniProt P32248)
T1 sequence (P32248 25-378): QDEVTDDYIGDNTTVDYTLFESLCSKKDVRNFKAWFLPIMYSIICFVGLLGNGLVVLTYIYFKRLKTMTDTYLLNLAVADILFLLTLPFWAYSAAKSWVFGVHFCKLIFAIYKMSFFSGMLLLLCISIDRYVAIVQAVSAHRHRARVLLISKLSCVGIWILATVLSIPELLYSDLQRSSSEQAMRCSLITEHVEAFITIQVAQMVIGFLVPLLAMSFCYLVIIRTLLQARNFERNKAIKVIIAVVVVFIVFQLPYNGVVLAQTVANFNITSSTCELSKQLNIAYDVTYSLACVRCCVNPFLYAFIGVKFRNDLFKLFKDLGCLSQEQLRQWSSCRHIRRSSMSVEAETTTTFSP

LAZ 388 cells = experiment: Flow cytometry of surface molecule expression on LAZ 388 cells; assay type: cell-based, human
Experimental: Immunofluorescence Staining and Flow Cytometric Analysis of Cell Surface Molecules: Cells were resuspended at 1×10^6 /ml in PBS and then incubated for periods of 5 to 120 minutes at 37° C. with MET-ENK at doses of 0 to 10^-5 M. Incubations were terminated by transferring samples to an ice bath and then pelleting the cells by centrifugation at 1800 rpm for 5 minutes at 4° C.
Immunofluorescence staining was carried out in 4-ml tubes maintained in an ice water bath. […] Cells were subsequently fixed within a 2% solution of formalin and maintained in the dark at 10° C. until analyzed.
Flow cytometric analysis was performed using a FACS SCAN Flow Cytometer (Becton Dickinson, Mountain View, Calif.) equipped with a HP9000 Series computer and the Lysys System software analysis package. Data were collected as histograms depicting the fluorescence intensity for 5,000 to 10,000 cells per sample.
The non-binding IgG1 MOPC myeloma protein, anti-macrophage/monocyte specific CD14 (MO2; IgG2) and anti-T cell specific CD3 (OKT3; IgG2a) mAb were employed as nonreactive controls for measuring the autofluorescence of B cells.

human T cells [6] = experiment: Migration of human peripheral blood T cells; assay type: cell-based
human T cells [7] = settings: Heagy et al., 1990; cited from earlier work
PBMC = settings: cited from earlier work
[8] = system: lymphocytes and macrophages; settings: cited from earlier work
[9] = listed as methionine enkephalin
[10] = read-out: Kd, high affinity site
[11] = read-out: Kd, low affinity site
[12] = LAZ 388, 10^-7 M MET-ENK, untreated 1.0
[13] = LAZ 388, 10^-7 M MET-ENK, untreated 11.4

Which results are given for `CSCC[C@H](NC(=O)[C@H](Cc1ccccc1)NC(=O)CNC(=O)CNC(=O)[C@@H](N)Cc1ccc(O)cc1)C(=O)O` [MET-ENK, Tyr-Gly-Gly-Phe-Met]?
cAMP production in NALM 6 cells (NALM 6 cells [1]): enhancement in the production of cAMP; cAMP production in NALM 6 cells (NALM 6 cells [1]; listed as Methionine-enkephalin): potentiates cAMP accumulation; humoral / antibody response (murine splenocytes): diminished; Bmax, low affinity sites (Jurkat cells [2]): 3.3×10^4 sites/cell and 3.0×10^4 sites/cell; number of high affinity sites (Jurkat cells [2]): 3.3 pM; number of low affinity sites (Jurkat cells [2]): 101 pM; Bmax, low affinity sites (Jurkat cells [2]; [9]): 3.0×10^4 sites/cell; pKd (Jurkat cells [2]; [10]): 8.87; pKd (Jurkat cells [2]; [11]): 6.50; [Ca^2+ ]i response (Jurkat cells [3]): elicited a rapid rise in [Ca^2+ ]i; NK cell activity, lymphocyte proliferation, antibody production (NK cells and lymphocytes): diminish NK cell activity, decrease lymphocyte proliferation, and inhibit antibody production; Number of cells at 40 μm from origin (NALM 6 cells [4]; MET-ENK 0.01 nM): 238; cell counts, migration to MET-ENK without naloxone (NALM 6 cells [4]; MET-ENK 1 nM): 2925 cell counts; Number of cells at 40 μm from origin (NALM 6 cells [4]; MET-ENK 1.0 nM): 407; cell counts, migration to MET-ENK without naloxone (NALM 6 cells [4]; MET-ENK 100 nM): 3492 cell counts; Number of cells at 40 μm from origin (NALM 6 cells [4]; MET-ENK 100 nM): 637; cell migration (cell counts) (NALM 6 cells [4]; NALM 6, peptide 100 nM, spontaneous locomotion 2190): 6952 cell counts; effect on migration of pre-B ALL cells (NALM 6 cells [4]; NALM 6 and LAZ 221 cells): potent stimulus for the migration of NALM 6 and LAZ 221 (pre-B ALL) but not LAZ 388 (EBV-transformed) cells; concentration at which effect on migration is detected (NALM 6 cells [4]; NALM 6 and LAZ 221 pre-B ALL cells): ≤ 10 pM; Bmax, low affinity sites (NALM 6 cells [5]): 4.48×10^4 sites/cell; number of high affinity sites (NALM 6 cells [5]): 25.9 pM; number of low affinity sites (NALM 6 cells [5]): 149 pM; Bmax, low affinity sites (NALM 6 cells [5]; [9]): 4.48×10^4 sites/cell; pKd (NALM 6 cells [5]; [10]): 9.00; pKd (NALM 6 cells [5]; [11]): 6.50; cAMP (EBI1): 109.6 fmoles/cell × 10^3; CD11a, CD18, CD54 expression, MET-ENK treated vs not (LAZ 388 cells; LAZ 388): equivalent for the MET-ENK-treated (+) and nontreated (-) cells; CD2 (LFA-2) fluorescence ratio (LAZ 388 cells; [12]): 0.9; CD49b (VLA-α2 chain) fluorescence ratio (LAZ 388 cells; [12]): 1.0; VLA-3 fluorescence ratio (LAZ 388 cells; [12]): 1.0; VLA-5 fluorescence ratio (LAZ 388 cells; [12]): 1.0; CD72 fluorescence ratio (LAZ 388 cells; LAZ 388, 10^-7 M MET-ENK, untreated 1.4): 1.7; CD11b (Mac 1) fluorescence ratio (LAZ 388 cells; LAZ 388, 10^-7 M MET-ENK, untreated 1.5): 1.5; CD20 fluorescence ratio (LAZ 388 cells; LAZ 388, 10^-7 M MET-ENK, untreated 1.7): 1.7; VLA-1 fluorescence ratio (LAZ 388 cells; LAZ 388, 10^-7 M MET-ENK, untreated 1.8): 2.0; CD19 fluorescence ratio (LAZ 388 cells; LAZ 388, 10^-7 M MET-ENK, untreated 8.6): 8.0; CD22 fluorescence ratio (LAZ 388 cells; [13]): 11.1; CD29 (VLA-β chain) fluorescence ratio (LAZ 388 cells; [13]): 11.2; VLA-β; DE9N fluorescence ratio (LAZ 388 cells; LAZ 388, 10^-7 M MET-ENK, untreated 11.5): 11.1; CD18 (Integrin β chain) fluorescence ratio (LAZ 388 cells; LAZ 388, 10^-7 M MET-ENK, untreated 11.9): 10.1; CD11a (LF1α) fluorescence ratio (LAZ 388 cells; LAZ 388, 10^-7 M MET-ENK, untreated 12.4): 11.4; CD54 (ICAM-1) fluorescence ratio (LAZ 388 cells; LAZ 388, 10^-7 M MET-ENK, untreated 18.7): 16.6; CD58 (LFA-3) fluorescence ratio (LAZ 388 cells; LAZ 388, 10^-7 M MET-ENK, untreated 22.4): 21.8; CD45 (T200) fluorescence ratio (LAZ 388 cells; LAZ 388, 10^-7 M MET-ENK, untreated 27.4): 27.3; CD23 fluorescence ratio (LAZ 388 cells; LAZ 388, 10^-7 M MET-ENK, untreated 68.2): 70.7; CD44 (homing receptor) fluorescence ratio (LAZ 388 cells; LAZ 388, 10^-7 M MET-ENK, untreated 79.0): 84.6; human lymphocyte / T cell migration (human T cells [6]): stimulate human lymphocyte migration; human T cell migration (human T cells [7]): potent stimulants for the migration of isolated human T cells; blastogenic responses to T and B cell lectins (PBMC; PBMC): augment the blastogenic responses of PBMC to both T and B cell lectins; IFN-γ production (PBMC; lectin stimulated PBMC): enhance IFN-γ production; lymphocyte trafficking in vivo ([8]; animals): enhance lymphocyte trafficking; lymphocyte and macrophage migration into ventricles ([8]; injection into cerebroventricles of rodents): elicited lymphocyte and macrophage migration into the ventricles
